Assay results: patent US9150555B2, “Amide derivative and use thereof” (Mitsubishi Tanabe Pharma Corporation, priority 2010, dated 2015)
Counter-ions that a name gives are not always drawn.

Assays:
[1] = molecular target: hERG (Homo sapiens, UniProt Q12809); assay: Effects on hERG current (whole-cell clamping); details: human, HEK 293 cells that express hERG, pH 7.4, hERG inhibition rate (%) (1 μM), 1 μM; tail peak current; hERG-expressed HEK 293 cells
Procedure: Dimethylsulfoxide was used as a vehicle and hERG-expressed HEK 293 cells (Cytomyx) were used as test cells. Test cells were once cultured and subdivided and were stored under frozen condition in liquid nitrogen. In the study, thawed and subcultured cells having less than 30 of the passage number were used. Test cells were cultured in a carbon dioxide incubator BNP-110M (Tabai Espec Corp.) at 37±1° C., and 5.0±0.5% of carbon dioxide concentration. The component of culture medium was MEM (Minimum Essential Medium) supplemented with 10 vol % fetal bovine serum (non-activated), 1 mmol/L sodium pyruvate, 0.1 mmol/L non-essential amino acid, 100 U/mL penicillin with 100 μg/mL streptomycin. To select gene-expressing cells, 400 μg/mL G418 Sulphate (Invitrogen) was added to the culture medium. In the dishes for the measurement, the medium which not contain G418 Sulphate (Invitrogen) was used.
As to seeding of cells for measurement, subcultured cells which became confluent were treated with 0.25% trypsin-solution containing 1 mmol/L EDTA (Invitrogen) to remove from the plate, and seeded on sterilized collagen-coated cover glass (Iwaki, AGC Techno Glass Co., LTD). The medium was exchanged appropriately, including the day of measurement.
A perfusion method was applied to the experiment. Test cells were perfused (perfusion speed: approximately 4 mL/min) with an external solution containing specified concentrations of test compounds (component of external solution: 137 mmol/L of sodium chloride, 4 mmol/L of potassium chloride, 10 mmol/L of HEPES, 1.8 mmol/L of calcium chloride, 1 mmol/L of magnesium chloride and 10 mmol/L of glucose; adjusted to pH 7.4±0.1 with sodium hydroxide aqueous solution). […] When effects were observed, the perfusion was continued until the maximum response was observed. […] The data were obtained from one experiment or more and the cells which were incubated in a carbon dioxide incubator after seeding and attached to cover slips were used for the measurement.
A whole-cell clamping method was applied to the measurement. Test cells were perfused (perfusion speed: approximately 4 mL/min) with an external solution (component of external solution: 137 mmol/L of sodium chloride, 4 mmol/L of potassium chloride, 10 mmol/L of HEPES, 1.8 mmol/L of calcium chloride, 1 mmol/L of magnesium chloride and 10 mmol/L of glucose; adjusted to pH 7.4±0.1 with sodium hydroxide aqueous solution). A glass electrode with a resistance of 2 to 6 MΩ, filled with an internal solution (component: 130 mmol/L of potassium chloride, 1 mmol/L of magnesium chloride, 5 mmol/L of EGTA, 10 mmol/L of HEPES and 5 mmol/L of ATP adjusted to pH 7.2±0.1 with sodium hydroxide aqueous solution) was used. After rupturing cell membrane with glass electrode, the cell membrane voltage was held at −80 mV via a patch clamp software (pCLAMP9 [Axon CNS], Molecular Devices) using patch clamp amplifier (EPC8, HEKA). […] Test cells and the cell-attached cover glass were changed every treatment. Temperature of the fluid in a perfusion fluid tank was 24±2° C.
The obtained current was recorded on a computer via a patch clamp amplifier using patch clamp software. An evaluation item was a tail peak current.
A tail peak current was analyzed using analyzing software (Clampfit 9 [Axon CNS], MolecularDevices). Each 2 pulses of before and after perfusion of test compound for each concentration was analyzed, and a peak values of the tail current on the pulses were determined. The inhibition ratio was determined according to the following equation:

[2] = tested on: IL-17 production of mouse spleen cells stimulated by rm-IL-23; assay: Production of IL-17 induced when mouse spleen cells were stimulated by recombinant mouse interleukin-23 (rm-IL-23); assay type: cell-based; details: Mus musculus, 72 h, inhibition of IL-17 production, DBA/1J mouse spleen cells, rm-IL-23 1 nmol/L, ELISA
Procedure: Effect on Production of IL-17 Induced when Mouse Spleen Cells were Stimulated by Recombinant Mouse Interleukin-23 (rm-IL-23)
An RPMI1640 (Sigma-Aldrich) was used as a medium, to which penicillin G potassium (50 units/mL; Gibco), streptomycin (50 μg/mL; Gibco) and 2-mercaptoethanol (50 μmol/l; Sigma-Aldrich) were added, and then 10% of fetal calf serum (FCS; Cell Culture Technology) inactivated at 56° C. for 30 minutes was added and used in the Test. The test compound was dissolved in dimethylsulfoxide and diluted with 10% FCS-containing RPMI1640 medium to a desired concentration and used in the test. The spleens were aseptically taken out from 6-7 week-old male DBA/1J mice (Charles River Japan, Inc.) and a single cell suspension of spleen cells was prepared and hemolyzed by hypotonic treatment with a mixture of 0.83% aqueous solution of ammonium chloride and Tris-HCl buffer of pH 7.65 (9:1). A cell suspension prepared by 10% FCS-containing RPMI1640 medium was added to flat-bottomed 96 well microtestplate at 2×10^5 cells/well. Test compounds and rm-IL-23 (R&D systems) were diluted with a medium to 1 to 1,000 nmol/L, and 1 nmol/L of the final concentration respectively, which were added and cultured at 37° C., 5% carbon dioxide and 95% air for 72 hours. After completion of the culture, culture supernatant was sampled and an amount of IL-17 production was determined by ELISA method. After sampling the supernatant, WST-8 (Seikagaku Corporation) was added at 10 μl/well and cultured at 37° C., 5% carbon dioxide and 95% air for 4 hours. Then, absorbance (O.D.: Optical Density) at 450 nm was measured by a microplate reader and the value was adopted as an index of cell survivability. An inhibition rate (%) was calculated according to the following formula on the basis of an average of an amount of IL-17 production and a O.D. values of the well containing a test compound of each concentration.
Based on the dose-response curve obtained by plotting the inhibition rate in the longitudinal axis and concentration in the horizontal axis, the concentration of the compound which inhibits the level to 50% of the value of the control group (IC50; nmol/L) was determined by linear regression analysis. The results was shown in the next Table 1

Sequence of hERG (Q12809 whole entry): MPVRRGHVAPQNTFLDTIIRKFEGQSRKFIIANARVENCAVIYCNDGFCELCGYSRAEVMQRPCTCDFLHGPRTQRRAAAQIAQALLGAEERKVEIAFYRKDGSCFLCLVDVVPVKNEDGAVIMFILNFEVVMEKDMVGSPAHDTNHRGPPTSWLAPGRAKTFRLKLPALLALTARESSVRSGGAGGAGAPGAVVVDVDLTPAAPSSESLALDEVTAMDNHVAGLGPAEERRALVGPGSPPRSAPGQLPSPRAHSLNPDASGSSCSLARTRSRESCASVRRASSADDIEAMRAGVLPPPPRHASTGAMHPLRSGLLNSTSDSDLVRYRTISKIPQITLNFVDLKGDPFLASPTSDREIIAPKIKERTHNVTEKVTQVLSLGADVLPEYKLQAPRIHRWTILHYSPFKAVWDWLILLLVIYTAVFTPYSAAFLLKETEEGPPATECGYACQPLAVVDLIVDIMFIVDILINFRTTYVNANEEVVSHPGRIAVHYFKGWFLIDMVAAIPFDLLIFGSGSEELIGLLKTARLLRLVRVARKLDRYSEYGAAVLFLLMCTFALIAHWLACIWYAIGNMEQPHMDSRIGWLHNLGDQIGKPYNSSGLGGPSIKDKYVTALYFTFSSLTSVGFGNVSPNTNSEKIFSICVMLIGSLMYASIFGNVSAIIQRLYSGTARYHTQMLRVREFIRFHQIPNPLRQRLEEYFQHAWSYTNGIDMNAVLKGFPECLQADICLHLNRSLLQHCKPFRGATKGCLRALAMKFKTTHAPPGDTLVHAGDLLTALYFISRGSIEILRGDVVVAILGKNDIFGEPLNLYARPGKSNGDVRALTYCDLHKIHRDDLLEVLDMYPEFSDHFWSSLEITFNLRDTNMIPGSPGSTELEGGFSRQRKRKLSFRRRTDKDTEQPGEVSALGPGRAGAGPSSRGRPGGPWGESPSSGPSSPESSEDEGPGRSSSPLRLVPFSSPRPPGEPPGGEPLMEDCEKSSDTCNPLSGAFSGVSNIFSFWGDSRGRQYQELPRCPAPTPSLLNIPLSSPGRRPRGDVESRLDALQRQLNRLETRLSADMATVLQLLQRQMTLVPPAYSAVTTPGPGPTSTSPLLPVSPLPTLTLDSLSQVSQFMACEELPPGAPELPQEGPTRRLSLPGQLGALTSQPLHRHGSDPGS

| IC50 [2] [nM] | SMILES | inhibition at 1 µM [1] [%] |
| --- | --- | --- |
| 58.4 | Cc1cc(NC(=O)c2cnn(-c3ccc(C4CC4)cn3)c2C)cnc1C1=CCN(C2CCOC2C)CC1 (stereo not drawn) [Example D191] | 47.6 |
| 58.4 | Cc1cc(NC(=O)c2cnn(-c3ccc(C(C)C)cn3)c2C)cnc1C1=CCC(N2CCOCC2)CC1 (stereo not drawn) [Example D200] | 47.6 |
| 18.7 | Cc1cc(NC(=O)c2cnn(-c3ccccc3)c2C)cnc1C1=CCC(N(C)C(=O)C(C)(C)C)CC1 (stereo not drawn) [Example D214] | 10 |
| 59.5 | Cc1cc(NC(=O)c2cnn(-c3ccc(F)cc3)c2C)cnc1C1=CCC(N(C)C(=O)C(C)C)CC1 (stereo not drawn) [Example D219, 1-(4-Fluorophenyl)-N-{6-[4-(N-isobutyryl-N-methylamino)cyclohex-1-en-1-yl]-5-methylpyridin-3-yl}-5-methyl-1H-pyrazole-4-carboxamide] | 11.4 |
| 31.4 | Cc1cc(NC(=O)c2cnn(-c3ccc(C(F)(F)F)cn3)c2C)cnc1C1=CCC(C(=O)N(C)C)CC1 (stereo not drawn) [Example D221, N-[6-(4-N,N-Dimethylcarbamoylcyclohex-1-en-1-yl)-5-methylpyridin-3-yl]-5-methyl-1-[5-(trifluoromethyl)pyridin-2-yl]-1H-pyrazole-4-carboxamide] | 20.1 |
| 141 | Cc1cc(NC(=O)c2cnn(-c3ccc(C(F)(F)F)cn3)c2C)cnc1C1=CCC(NC(=O)C(C)(C)C)CC1 (stereo not drawn) [Example D224] | 19.5 |
| 55.6 | Cc1cc(NC(=O)c2cnn(-c3ccc(C(F)(F)F)cn3)c2C)cnc1C1=CCC2(CC1)OCCO2 [Example D234] | 5.6 |
| 49.1 | Cc1cc(NC(=O)c2cnn(-c3ccc(C(F)(F)F)cn3)c2C)cnc1C1CCC2(CC1)OCCO2 [Example D238] | 5 |
| 131 | Cc1cc(NC(=O)c2cnn(-c3ccc(C(F)(F)F)cn3)c2C)cnc1C1=CCC(N(C)C(=O)OC(C)(C)C)CC1 (stereo not drawn) [Example D249, N-methyl-{4-[3-methyl-5-({5-methyl-1-[5-(trifluoromethyl)pyridin-2-yl]-1H-pyrazole-4-carbonyl}-amino)pyridin-2-yl]cyclohex-3-en-1-yl}carbamoic acid carbamic acid tert-butyl ester] | 36.9 |
| 146 | Cc1c(C(=O)Nc2ccc([C@]3(C#N)CC[C@@](C)(O)CC3)nc2)cnn1-c1ccc(C(F)(F)F)cn1 [Example D254] | 6.6 |
| 4.02 | Cc1cc(NC(=O)c2cnn(-c3ccc(F)cc3)c2C)cnc1C1=CCC(N(C)C(=O)C(C)(C)C)CC1 (stereo not drawn) [Example D260] | 16.8 |
| 17.4 | Cc1ccc(-n2ncc(C(=O)Nc3cnc(C4=CCC(N(C)C(=O)C(C)(C)C)CC4)c(C)c3)c2C)nc1 (stereo not drawn) [Example D264] | 7.5 |
| 4.91 | Cc1cc(NC(=O)c2cnn(-c3ccc(C(F)(F)F)cn3)c2C)cnc1C1=CCC(N(C)C(=O)C(F)(F)F)CC1 (stereo not drawn) [Example D265, 5-Methyl-N-(5-methyl-6-{4-[N-methyl-N-(2,2,2-trifluoroacetyl)amino]cyclohex-1-en-1-yl}pyridin-3-yl)-1-[5-(trifluoromethyl)pyridin-2-yl]-1H-pyrazole-4-carboxamide] | 35.9 |
| 155 | Cc1cc(NC(=O)c2cnn(-c3ccc(C(F)(F)F)cn3)c2C)cnc1C1=CCC(C(=O)NC(C)(C)C)CC1 (stereo not drawn) [Example D268] | 9.8 |
| 207 | Cc1cc(NC(=O)c2cnn(-c3ccc(C4CC4)cn3)c2C)cnc1C1=CCC(C(=O)NC(C)(C)C)CC1 (stereo not drawn) [Example D269] | 14.1 |
| 71.2 | CC[C@]1(O)CC[C@](C#N)(c2ccc(NC(=O)c3cnn(-c4ccc(C(F)(F)F)cn4)c3C)cn2)CC1 [Example D276] | 8.9 |
| 174 | Cc1c(C(=O)Nc2cnc(C3=CCC(N4CCOCC4)CC3)c(F)c2)cnn1-c1ccc(C(F)(F)F)cn1 (stereo not drawn) [Example D282] | 11.9 |
| 5.38 | Cc1c(C(=O)Nc2ccc([C@]3(C#N)CC[C@@H](N(C)C(=O)C(C)(C)C)CC3)nc2)cnn1-c1ccc(C(F)(F)F)cn1 [Example D288, N-(6-{r-1-Cyano-c-4-[N-(2,2-dimethylpropanoyl)-N-methylamino]cyclohexan-1-yl}pyridin-3-yl)-5-methyl-1-[5-(trifluoromethyl)pyridin-2-yl]-1H-pyrazole-4-carboxamide] | 5.9 |
| 87.2 | Cc1c(C(=O)Nc2ccc([C@]3(C#N)CC[C@@H](N(C)C(=O)C(C)C)CC3)nc2)cnn1-c1ccc(C(F)(F)F)cn1 [Example D289, N-{6-[r-1-Cyano-c-4-(N-isobutyryl-N-methylamino)cyclohexan-1-yl]pyridin-3-yl}-5-methyl-1-[5-(trifluoromethyl)pyridin-2-yl]-1H-pyrazole-4-carboxamide] | 11.6 |
| 62.3 | Cc1c(C(=O)Nc2ccc(C3=CCC(N4CCOCC4)CC3)nc2)cnn1-c1ccc(C(F)(F)F)cn1 (stereo not drawn) [Example E1, 5-Methyl-N-{6-[4-(morpholin-4-yl)cyclohex-1-en-1-yl]pyridin-3-yl}-1-[5-(trifluoromethyl)-pyridin-2-yl]-1H-pyrazole-4-carboxamide mesylate] | 34.7 |

Second part, the compound before the results:

| SMILES | IC50 [2] [nM] | inhibition at 1 µM [1] [%] |
| --- | --- | --- |
| Cc1cc(NC(=O)c2cnn(-c3ncc(C(F)(F)F)cc3F)c2C)cnc1C1CCC2(CC1)OCCO2 [Example D196, N-[6-(1,4-Dioxaspiro[4.5]dec-8-yl)-5-methylpyridin-3-yl]-1-[3-fluoro-5-(trifluoromethyl)pyridin-2-yl]-5-methyl-1H-pyrazole-4-carboxamide] | 54.6 | 13.6 |
| COc1cc(C(F)(F)F)cnc1-n1ncc(C(=O)Nc2cnc(C3CCC4(CC3)OCCO4)c(C)c2)c1C [Example D197] | 123 | 0.8 |
| Cc1cc(NC(=O)c2nn(C)c3ccccc23)cnc1C1=CCC(N(C)C(=O)C(C)(C)C)CC1 (stereo not drawn) [Example D217] | 84.4 | 26.7 |
| Cc1c(C(=O)Nc2ccc(C3CCC4(CC3)OCCO4)nc2)cnn1-c1ccc(C(F)(F)F)cn1 [Example D237] | 50.3 | 3.6 |
| Cc1c(C(=O)Nc2ccc([C@]3(C#N)CC[C@]4(C=CCO4)CC3)nc2)cnn1-c1ccc(C(F)(F)F)cn1 [Example D270] | 55.8 | 0.5 |
| CC[C@]1(O)CC[C@](C#N)(c2ccc(NC(=O)c3cnn(-c4ccc(Cl)cc4)c3C)cn2)CC1 [Example D275] | 55.3 | 14.4 |
| Cc1c(C(=O)Nc2ccc([C@]3(C#N)CC[C@]4(CCCO4)CC3)nc2)cnn1-c1ccc(C(F)(F)F)cn1 [Example D278, N-[6-(c-8-Cyano-r-1-oxaspiro[4.5]decan-8-yl)pyridin-3-yl]-5-methyl-1-[5-(trifluoromethyl)-pyridin-2-yl]-1H-pyrazole-4-carboxamide] | 50.2 | 13.6 |
| Cc1ccc(-n2ncc(C(=O)Nc3ccc([C@]4(C#N)CC[C@]5(CCCO5)CC4)nc3)c2C)cc1 [Example D279] | 112 | 12.8 |
| Cc1nc(-n2ncc(C(=O)Nc3ccc([C@]4(C#N)CC[C@@H](N5CCOCC5)CC4)nc3)c2C)ccc1C(F)(F)F [Example D299] | 112 | 40.6 |
| CC(C)c1c(C(=O)Nc2ccc([C@]3(C#N)CC[C@@H](N4CCOCC4)CC3)nc2)cnn1-c1ccc(C(F)(F)F)cn1 [Example D300, N-{6-[r-1-Cyano-c-4-(morpholin-4-yl)cyclohexyl]pyridin-3-yl}-5-isopropyl-1-[5-(trifluoromethyl)pyridin-2-yl]-1H-pyrazole-4-carboxamide] | 182 | 26.1 |
| Cc1c(C(=O)Nc2ccc([C@]3(O)CC[C@@H](N4CCOCC4)CC3)nc2)cnn1-c1ccc(C(F)(F)F)cn1 [Example E2, N-{6-[r-1-Hydroxy-c-4-(morpholin-4-yl)cyclohexyl]pyridin-3-yl}-5-methyl-1-[5-(trifluoromethyl)pyridin-2-yl]-1H-pyrazole-4-carboxamide] | 179 | 24.4 |
| Cc1c(C(=O)Nc2ccc(C3(C#N)CCC4(CC3)OCCO4)nc2)cnn1-c1ccc(C(F)(F)F)cc1 [Example E6] | 28.5 | 36.9 |
| N#CC1(c2ccc(NC(=O)c3ccc(-c4ccc(Cl)cc4)o3)cn2)CCC2(CC1)OCCO2 [Example E18] | 50.4 | 8.8 |
